{"source": "BindingDB's records for doi:10.7270/Q2V69MR5", "about": "(n/a, 1993)", "target": "T1, Neutrophil elastase (Homo sapiens, UniProt P08246)", "T1 sequence (P08246 whole entry)": "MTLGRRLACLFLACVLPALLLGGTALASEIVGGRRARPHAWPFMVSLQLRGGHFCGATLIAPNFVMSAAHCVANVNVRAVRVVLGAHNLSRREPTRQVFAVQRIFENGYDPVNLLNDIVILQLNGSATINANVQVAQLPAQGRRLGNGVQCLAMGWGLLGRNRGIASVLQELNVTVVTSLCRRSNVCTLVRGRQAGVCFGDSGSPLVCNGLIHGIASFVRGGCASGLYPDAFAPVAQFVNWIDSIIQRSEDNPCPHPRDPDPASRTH", "test": "Compound was evaluated for the inhibitory activity against Human leukocyte elastase; time-dependent inhibition was not observed", "settings": "read-out: kon (M-1-s-1)", "data": [{"molecule": "CC[C@H]1C(=O)N(C(=O)NCc2ccccc2)[C@H]1Oc1ccc(C(=O)O)cc1", "values": [{"measurement": "kon", "result": 5.6, "unit": "M⁻¹ s⁻¹"}]}]}
